Earlier results in paper PMC5007443, “TNIK inhibition abrogates colorectal cancer stemness” (Nature Communications, 2016).

Columns and labels:
lung cancer cells = tested on: lung cancer cells; set-up: method as in PMID 25337707; details: cited from earlier work
TNIK = tested on: TNIK; set-up: method as in PMID 23232060; details: read-out: IC50, enzyme activity of TNIK; cited from earlier work
Wnt signal = tested on: Wnt signal; set-up: method as in PMID 23232060; details: read-out: IC50, Wnt signal-inhibitory effects; cited from earlier work

| SMILES | EMT of lung cancer cells induced by TGF-β1 (lung cancer cells) | IC50 (TNIK) [nM] | IC50 (Wnt signal) [nM] |
| --- | --- | --- | --- |
| Cc1ccc(C(=O)Nc2sc(Nc3ccccc3)nc2C(N)=O)cc1 [NCB-0005] | inhibit | – | – |
| COc1ccc(C#N)cc1-c1ccnc(Nc2ccc(N3CCOCC3)c(OC)c2)c1 [Compound 9, 4-methoxy-3-(2-(3-methoxy-4-morpholinophenylamino)pyridin-4-yl)benzonitrile] | – | 8 | > 2000 |
